Experimental data published in US9963445B2, “Chemical compounds” (SYNGENTA PARTICIPATIONS AG, priority 2013, dated 2018).

Test system: Abutilon theophrasti
Assay: Pre-emergence herbicidal activity, glasshouse pot test
Assay type: in vivo
Settings: pre-emergence spray, rate 1000 g/ha, evaluated after 13 days, scale 0-5
Experimental: (§1) Seeds of a variety of test species were sown in standard soil in pots. After cultivation for one day (pre-emergence) under controlled conditions in a glasshouse (at 24/16° C., day/night; 14 hours light; 65% humidity), the plants were sprayed with an aqueous spray solution derived from the formulation of the technical active ingredient in acetone/water (50:50) solution containing 0.5% Tween 20 (polyoxyethelyene sorbitan monolaurate, CAS RN 9005-64-5). The test plants were then grown in a glasshouse under controlled conditions (at 24/16° C., day/night; 14 hours light; 65% humidity) and watered twice daily. After 13 days, the test was evaluated (5=total damage to plant; 0=no damage to plant).
(§2) ABUTH=Abutilon theophrasti; SOLNI=Solanum nigrum; AMARE=Amaranthus retroflexus; SETFA=Setaria faberi; ALOMY=Alopecurus myosuroides; ECHCG=Echinochloa crus-galli, ZEAMX=zea mays.

Compound | ABUTH damage score, application pre-emergence
CC1=C(Cl)C(=O)N(c2cc(C(F)(F)F)c(-c3ccc(Cl)cc3)cn2)C1O (centres unmarked) [AF90] | 0
COC1=C(C)C(O)N(c2cc(C(C)C)c(C(=O)NC(C)(C)C)cn2)C1=O (centres unmarked) [AI30] | 5
CC1=C(Cl)C(=O)N(c2cc(C(C)C)c(Cl)nn2)C1O (centres unmarked) [BF15] | 4
COC1=C(C)C(O)N(c2cc(C(C)C)c(Cl)nn2)C1=O (centres unmarked) [BI28] | 4
COC1=C(C)C(O)N(c2cc(C(C)(C)C)c(Cl)nn2)C1=O (centres unmarked) [BI32] | 4

Test system: Alopecurus myosuroides
Assay: as above
Assay type: in vivo
Settings: pre-emergence spray, rate 1000 g/ha, evaluated after 13 days, scale 0-5
Experimental: as §1, §2

Compound | ALOMY damage score, application pre-emergence
CC1=C(Cl)C(=O)N(c2cc(C(C)C)c(Cl)nn2)C1O (centres unmarked) [BF15] | 4
COC1=C(C)C(O)N(c2cc(C(C)C)c(Cl)nn2)C1=O (centres unmarked) [BI28] | 4
COC1=C(C)C(O)N(c2cc(C(C)(C)C)c(Cl)nn2)C1=O (centres unmarked) [BI32] | 4

Test system: zea mays
Assay: as above
Assay type: in vivo
Settings: pre-emergence spray, rate 1000 g/ha, evaluated after 13 days, scale 0-5
Experimental: as §1, §2

Compound | ZEAMX damage score, application pre-emergence
CC1=C(Cl)C(=O)N(c2cc(C(F)(F)F)c(-c3ccc(Cl)cc3)cn2)C1O (centres unmarked) [AF90] | 0
CC1=C(Cl)C(=O)N(c2cc(C(C)C)c(Cl)nn2)C1O (centres unmarked) [BF15] | 2
COC1=C(C)C(O)N(c2cc(C(C)C)c(Cl)nn2)C1=O (centres unmarked) [BI28] | 3
COC1=C(C)C(O)N(c2cc(C(C)(C)C)c(Cl)nn2)C1=O (centres unmarked) [BI32] | 4

Test system: Amaranthus retroflexus
Assay: as above
Assay type: in vivo
Settings: pre-emergence spray, rate 1000 g/ha, evaluated after 13 days, scale 0-5
Experimental: as §1, §2

Compound | AMARE damage score, application pre-emergence
CC1=C(Cl)C(=O)N(c2cc(C(F)(F)F)c(-c3ccc(Cl)cc3)cn2)C1O (centres unmarked) [AF90] | 2
COC1=C(C)C(O)N(c2cc(C(C)C)c(C(=O)NC(C)(C)C)cn2)C1=O (centres unmarked) [AI30] | 5
CC1=C(Cl)C(=O)N(c2cc(C(C)C)c(Cl)nn2)C1O (centres unmarked) [BF15] | 3
COC1=C(C)C(O)N(c2cc(C(C)C)c(Cl)nn2)C1=O (centres unmarked) [BI28] | 4
COC1=C(C)C(O)N(c2cc(C(C)(C)C)c(Cl)nn2)C1=O (centres unmarked) [BI32] | 3

Test system: Echinochloa crus-galli
Assay: as above
Assay type: in vivo
Settings: pre-emergence spray, rate 1000 g/ha, evaluated after 13 days, scale 0-5
Experimental: as §1, §2

Compound | ECHCG damage score, application pre-emergence
CC1=C(Cl)C(=O)N(c2cc(C(F)(F)F)c(-c3ccc(Cl)cc3)cn2)C1O (centres unmarked) [AF90] | 0
CC1=C(Cl)C(=O)N(c2cc(C(C)C)c(Cl)nn2)C1O (centres unmarked) [BF15] | 5
COC1=C(C)C(O)N(c2cc(C(C)C)c(Cl)nn2)C1=O (centres unmarked) [BI28] | 5
COC1=C(C)C(O)N(c2cc(C(C)(C)C)c(Cl)nn2)C1=O (centres unmarked) [BI32] | 5

Test system: Setaria faberi
Assay: as above
Assay type: in vivo
Settings: pre-emergence spray, rate 1000 g/ha, evaluated after 13 days, scale 0-5
Experimental: as §1, §2

Compound | SETFA damage score, application pre-emergence
CC1=C(Cl)C(=O)N(c2cc(C(F)(F)F)c(-c3ccc(Cl)cc3)cn2)C1O (centres unmarked) [AF90] | 3
CC1=C(Cl)C(=O)N(c2cc(C(C)C)c(Cl)nn2)C1O (centres unmarked) [BF15] | 5
COC1=C(C)C(O)N(c2cc(C(C)C)c(Cl)nn2)C1=O (centres unmarked) [BI28] | 5
COC1=C(C)C(O)N(c2cc(C(C)(C)C)c(Cl)nn2)C1=O (centres unmarked) [BI32] | 5

Test system: Abutilon theophrasti
Assay: Post-emergence herbicidal activity, glasshouse pot test
Assay type: in vivo
Set-up: key: 0 = no damage to plant, 5 = total damage to plant
Settings: Application post-emergence, rate 1000 g/ha, evaluated after 13 days
Experimental: (§3) Seeds of a variety of test species were sown in standard soil in pots. After 8 days cultivation (post-emergence) under controlled conditions in a glasshouse (at 24/16° C., day/night; 14 hours light; 65% humidity), the plants were sprayed with an aqueous spray solution derived from the formulation of the technical active ingredient in acetone/water (50:50) solution containing 0.5% Tween 20 (polyoxyethelyene sorbitan monolaurate, CAS RN 9005-64-5). The test plants were then grown in a glasshouse under controlled conditions (at 24/16° C., day/night; 14 hours light; 65% humidity) and watered twice daily. After 13 days, the test was evaluated (5=total damage to plant; 0=no damage to plant).
as §2

Compound | ABUTH herbicidal damage score
CC1=C(Cl)C(=O)N(c2cc(C(F)(F)F)c(-c3ccc(Cl)cc3)cn2)C1O (centres unmarked) [AF90] | 4
COC1=C(C)C(O)N(c2cc(C(C)C)c(C(=O)NC(C)(C)C)cn2)C1=O (centres unmarked) [AI30] | 5
CC1=C(Cl)C(=O)N(c2cc(C(C)C)c(Cl)nn2)C1O (centres unmarked) [BF15] | 5
COC1=C(C)C(O)N(c2cc(C(C)C)c(Cl)nn2)C1=O (centres unmarked) [BI28] | 5
COC1=C(C)C(O)N(c2cc(C(C)(C)C)c(Cl)nn2)C1=O (centres unmarked) [BI32] | 5

Test system: Alopecurus myosuroides
Assay: as above
Assay type: in vivo
Set-up: key: 0 = no damage to plant, 5 = total damage to plant
Settings: Application post-emergence, rate 1000 g/ha, evaluated after 13 days
Experimental: as §3, §2

Compound | ALOMY herbicidal damage score
CC1=C(Cl)C(=O)N(c2cc(C(C)C)c(Cl)nn2)C1O (centres unmarked) [BF15] | 5
COC1=C(C)C(O)N(c2cc(C(C)C)c(Cl)nn2)C1=O (centres unmarked) [BI28] | 5
COC1=C(C)C(O)N(c2cc(C(C)(C)C)c(Cl)nn2)C1=O (centres unmarked) [BI32] | 5

Test system: zea mays
Assay: as above
Assay type: in vivo
Set-up: key: 0 = no damage to plant, 5 = total damage to plant
Settings: Application post-emergence, rate 1000 g/ha, evaluated after 13 days
Experimental: as §3, §2

Compound | ZEAMX herbicidal damage score
CC1=C(Cl)C(=O)N(c2cc(C(C)C)c(Cl)nn2)C1O (centres unmarked) [BF15] | 3
COC1=C(C)C(O)N(c2cc(C(C)C)c(Cl)nn2)C1=O (centres unmarked) [BI28] | 3
COC1=C(C)C(O)N(c2cc(C(C)(C)C)c(Cl)nn2)C1=O (centres unmarked) [BI32] | 4

Test system: Amaranthus retroflexus
Assay: as above
Assay type: in vivo
Set-up: key: 0 = no damage to plant, 5 = total damage to plant
Settings: Application post-emergence, rate 1000 g/ha, evaluated after 13 days
Experimental: as §3, §2

Compound | AMARE herbicidal damage score
CC1=C(Cl)C(=O)N(c2cc(C(F)(F)F)c(-c3ccc(Cl)cc3)cn2)C1O (centres unmarked) [AF90] | 5
COC1=C(C)C(O)N(c2cc(C(C)C)c(C(=O)NC(C)(C)C)cn2)C1=O (centres unmarked) [AI30] | 5
CC1=C(Cl)C(=O)N(c2cc(C(C)C)c(Cl)nn2)C1O (centres unmarked) [BF15] | 5
COC1=C(C)C(O)N(c2cc(C(C)C)c(Cl)nn2)C1=O (centres unmarked) [BI28] | 5
COC1=C(C)C(O)N(c2cc(C(C)(C)C)c(Cl)nn2)C1=O (centres unmarked) [BI32] | 5

Test system: Echinochloa crus-galli
Assay: as above
Assay type: in vivo
Set-up: key: 0 = no damage to plant, 5 = total damage to plant
Settings: Application post-emergence, rate 1000 g/ha, evaluated after 13 days
Experimental: as §3, §2

Compound | ECHCG herbicidal damage score
COC1=C(C)C(O)N(c2cc(C(C)C)c(C(=O)NC(C)(C)C)cn2)C1=O (centres unmarked) [AI30] | 5

Test system: Setaria faberi
Assay: as above
Assay type: in vivo
Set-up: key: 0 = no damage to plant, 5 = total damage to plant
Settings: Application post-emergence, rate 1000 g/ha, evaluated after 13 days
Experimental: as §3, §2

Compound | SETFA herbicidal damage score
CC1=C(Cl)C(=O)N(c2cc(C(F)(F)F)c(-c3ccc(Cl)cc3)cn2)C1O (centres unmarked) [AF90] | 5
COC1=C(C)C(O)N(c2cc(C(C)C)c(C(=O)NC(C)(C)C)cn2)C1=O (centres unmarked) [AI30] | 5
